Source: patent US20060111357A1, “Quinoline compounds for use in mch receptor related disorders” (priority 2003, published 2006)
Read-outs that look alike come from different tables or passages of the source.

What was measured:
human MCH-1 receptor [1] = target: T1, human MCH-1 receptor (Homo sapiens, UniProt Q99705); assay: MCH receptor binding ([125I]-MCH competition binding / SPA)
T1 construct: expressed in transfected cells; host or cells: transiently transfected COS-7 cells or stably transfected CHO cells (pcDNA3.1)
T1 sequence (Q99705 whole entry): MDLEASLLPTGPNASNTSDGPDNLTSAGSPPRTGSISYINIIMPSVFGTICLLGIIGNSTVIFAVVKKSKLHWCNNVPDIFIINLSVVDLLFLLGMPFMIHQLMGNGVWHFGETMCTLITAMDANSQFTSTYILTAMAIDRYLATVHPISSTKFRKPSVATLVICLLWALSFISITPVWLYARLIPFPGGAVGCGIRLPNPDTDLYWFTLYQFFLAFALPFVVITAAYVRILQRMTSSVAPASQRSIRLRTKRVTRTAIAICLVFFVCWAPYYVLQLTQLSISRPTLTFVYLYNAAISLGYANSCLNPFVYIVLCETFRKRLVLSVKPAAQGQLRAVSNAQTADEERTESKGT
Procedure: (§1) Transfections and Tissue Culture—The cDNA encoding the human MCH-1 receptor was cloned from a human brain cDNA library and cloned into the eukaryotic expression vector pcDNA3.1 (Invitrogen). Assays were performed on transiently transfected COS-7 cells or stably transfected CHO (Chinese Hamster Ovary) cells, expressing the human MCH-1 receptor in pcDNA3.1. […] Clones were screened by a MCH receptor radioligand binding assay (as described below).
Radioligand Binding Assay—Transiently transfected COS-7 cells or stably transfected CHO cells, expressing human MCH-1 receptor were seeded in multi-well culture plates one day before the assay. The number of cells per well was determined by the apparent expression efficiency of the cell line aiming at 5-10% binding of the added radioligand. […] The assay was performed in duplicate. Nonspecific binding was determined as the binding in the presence of 1 μM MCH (Bachem). Binding data were analyzed and IC50 values determined by non-linear regression using the Prism software (GraphPad software, San Diego). Values of the dissociation and inhibition constants (Kd and Ki) were estimated from competition binding using the equations Kd=IC50-L and Ki=IC50/(1+L/Kd), respectively, where L is the concentration of radioligand.
Membranes and beads were pre-incubated for 20 min. […] Moreover, CHO-K1 membranes expressing the hMCH receptor were purchased from Euroscreen (ES-370-M) and a final concentration of 2 μg/well were used. Binding data were analyzed and IC50 values determined by non-linear regression using the Prism software (GraphPad software, San Diego). Values of the inhibition constant (Ki) were estimated from competition binding using the equation Ki=IC50/(1+L/Kd), where L and Kd are the concentration and affinity constant, respectively, of the radioligand.

human MCH-1 receptor [2] = target: T1, human MCH-1 receptor; assay: Phosphatidylinositol (IP3) assay, MCH-stimulated turnover; type: cell-based
Procedure: as §1
Phosphatidylinositol assay—To assay phosphatidylinositol turnover, transiently transfected COS-7 cells or stably transfected CHO cells, expressing human MCH-1 receptor (2×10^5 cells/well) were incubated for 24 h with 5 μCi of (^3H]-myo-inositol (Amersham Pharmacia Biotech) in 0.5 ml inositol-free culture medium. Cells were washed twice in PI-buffer: 20 mM HEPES, pH 7.4, supplemented with 140 mM NaCl, 5 mM KCl, 1 mM MgSO4, 1 mM CaCl2, 10 mM glucose, 0.02% (w/v) bovine serum; and were incubated in 0.5 ml PI-buffer supplemented with 10 mM LiCl at 37° C. for 45 min.
Phosphatidylinositol turnover was stimulated by submaximal concentrations of MCH, i.e. 10 nM in the presence of increasing amounts of ligand. The ligand was added 5 min. before adding the agonist (MCH). Cells were extracted with 10 mM ice-cold Formic acid, and the generated [^3H]-inositol phosphates were purified on Bio-Rad AG 1-X8 anion-exchange resin. Determinations were made in duplicate. PI data were analyzed and IC50 values determined by non-linear regression using the Prism software (GraphPad software, San Diego).

[3] = risk of Torsades de Pointes, from www.torsades.org; cited from earlier work
HERG channels [4] = target: T2, HERG channels (Homo sapiens, UniProt Q12809)
T2 sequence (Q12809 whole entry): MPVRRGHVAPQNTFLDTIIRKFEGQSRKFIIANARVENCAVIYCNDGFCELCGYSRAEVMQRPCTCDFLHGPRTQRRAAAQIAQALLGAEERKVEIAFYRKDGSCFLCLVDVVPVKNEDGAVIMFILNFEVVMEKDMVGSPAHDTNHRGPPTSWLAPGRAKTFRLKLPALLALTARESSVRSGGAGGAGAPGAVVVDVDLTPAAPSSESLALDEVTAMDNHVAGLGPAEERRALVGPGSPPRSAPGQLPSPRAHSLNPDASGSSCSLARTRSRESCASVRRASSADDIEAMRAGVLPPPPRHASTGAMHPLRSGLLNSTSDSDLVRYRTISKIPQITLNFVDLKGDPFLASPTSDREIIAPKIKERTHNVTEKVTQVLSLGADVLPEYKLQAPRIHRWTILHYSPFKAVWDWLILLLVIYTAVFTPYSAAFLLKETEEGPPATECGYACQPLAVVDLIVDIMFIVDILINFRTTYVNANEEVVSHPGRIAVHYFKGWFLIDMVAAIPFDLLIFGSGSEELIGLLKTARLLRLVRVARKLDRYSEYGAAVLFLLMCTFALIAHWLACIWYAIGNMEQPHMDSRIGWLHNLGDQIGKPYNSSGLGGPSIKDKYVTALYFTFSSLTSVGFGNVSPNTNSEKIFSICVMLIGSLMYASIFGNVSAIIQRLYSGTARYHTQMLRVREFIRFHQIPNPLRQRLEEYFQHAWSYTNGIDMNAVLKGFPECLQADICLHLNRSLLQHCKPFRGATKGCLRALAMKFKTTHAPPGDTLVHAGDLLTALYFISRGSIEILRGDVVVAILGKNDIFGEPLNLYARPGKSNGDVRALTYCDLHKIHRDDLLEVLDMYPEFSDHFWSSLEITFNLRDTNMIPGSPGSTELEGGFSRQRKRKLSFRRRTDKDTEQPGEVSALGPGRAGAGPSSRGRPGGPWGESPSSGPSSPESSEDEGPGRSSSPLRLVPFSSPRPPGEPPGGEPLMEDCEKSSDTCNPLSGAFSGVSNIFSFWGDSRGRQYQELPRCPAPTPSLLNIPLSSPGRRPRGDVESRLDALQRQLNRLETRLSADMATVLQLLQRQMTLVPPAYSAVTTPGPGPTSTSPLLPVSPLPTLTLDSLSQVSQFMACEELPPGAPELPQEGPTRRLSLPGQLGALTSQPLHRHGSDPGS

HERG channels [5] = target: T2, HERG channels; assay: HERG selectivity method, whole-cell patch-clamp recordings
[6] = stimulated by 10 nM MCH, read-out: IP3 IC50
For Risk Group in this document: key: 1: Drugs that are generally accepted by authorities to have a risk of Torsades de Pointes (TdP); 2: Drugs that in some reports may be associated with TdP but at this time lack substantial evidence; 4: Drugs that, in some reports, have been weakly associated with TdP but that when used in usual dosages are unlikely to be a risk for TdP.

SMILES | IC50 (human MCH-1 receptor [1]) [nM] | IC50 (human MCH-1 receptor [2]; [6]) [nM] | Risk Group [3] | also measured
CCN1CCCC1CNc1cc(C)c2cc(NC(=O)/C=C/c3ccc(OC(F)(F)F)cc3)ccc2n1 (stereo not drawn) [Example 62, (E)-N-{2-[(1-Ethyl-pyrrolidin-2-ylmethyl)-amino]-4-methyl-quinolin-6-yl}-3-(4-trifluoromethoxy-phenyl)-acrylamide] | 13 | 10 | – | –
Cc1cc(N2CCCNCC2)nc2ccc(NC(=O)COc3ccc(OC(F)(F)F)cc3)cc12 [Example 25, N-(2-[1,4]Diazepan-1-yl-4-methylquinolin-6-yl)-2-(4-trifluoromethoxyphenoxy)-acetamide] | 12 | 71 | – | –
CC(=O)N1CCN(c2ccc(OCC3COC(Cn4ccnc4)(c4ccc(Cl)cc4Cl)O3)cc2)CC1 (stereo not drawn) [Ketoconazole] | – | – | 4 | –
Cc1cc(N2CCN(C)CC2)nc2ccc(NC(=O)C(C)Oc3ccc(Cl)cc3Cl)cc12 (stereo not drawn) | 280 | 2000 | – | –
Cc1cc(N2CCN(C)CC2)nc2ccc(NC(=O)/C=C/c3ccc(OC(F)(F)F)cc3)cc12 [Example 16, (E)-N-[4-Methyl-2-(4-methyl-piperazin-1-yl)-quinolin-6-yl]-3-(4-trifluoromethoxy-phenyl)-acrylamide] | 11 | 42 | – | –
Cc1nc2n(c(=O)c1CCN1CCC(c3noc4cc(F)ccc34)CC1)CCCC2 [Risperidone] | – | – | 2 | –
CN(C)CCCN1c2ccccc2CCc2ccccc21 [Imipramine] | – | – | 4 | –
Cc1cc(NCCN2CCOCC2)nc2ccc(NC(=O)COc3ccc(OC(F)(F)F)cc3)cc12 [Example 42, N-[4-Methyl-2-(2-morpholin-4-yl-ethylamino)-quinolin-6-yl]-2-(4-trifluoromethoxy-phenoxy)-acetamide] | 10 | 16 | – | –
Cc1cc(OCCN(C)C)nc2ccc(NC(=O)COc3ccc(Cl)cc3Cl)cc12 [Example 76, 2-(2,4-Dichloro-phenoxy)-N-[2-(2-dimethylamino-ethoxy)-4-methyl-quinolin-6-yl]-acetamide] | – | – | – | IC50 (human MCH-1 receptor [2]): 135 nM
CC(C)COCC(CN(Cc1ccccc1)c1ccccc1)N1CCCC1 (stereo not drawn) [Bepridil] | – | – | 1 | –
Clc1ccc2c(c1)C(N1CCNCC1)=Nc1ccccc1O2 [Amoxapine] | – | – | 4 | –
CC(C)NCC(O)c1ccc(NS(C)(=O)=O)cc1 (racemic) [(±) sotalol] | – | – | 1 | Ki in μM ± S.D. (#) (HERG channels [4]): No effect at 100 (5)
CNCCC(Oc1ccc(C(F)(F)F)cc1)c1ccccc1 (stereo not drawn) [Fluoxetine] | – | – | 4 | –
CN(C)CCC=C1c2ccccc2CCc2ccccc21 [Amitriptyline] | – | – | 4 | –
CN1CCN(CC/C=C2/c3ccccc3Sc3ccc(S(=O)(=O)N(C)C)cc32)CC1 [Cis-Thiothixene] | – | – | – | Ki (HERG channels [5]; read-out: Ki in μM ± S.D. (#), HEK 293 cells stably expressing HERG+KCNE1, tail-current block, room temperature, Ki=koff/kon): 8.6 ± 2.7 µM
Cc1cc(N2CCC(N)CC2)nc2ccc(NC(=O)COc3ccc(Cl)cc3Cl)cc12 [Example 33, N-[2-(4-Amino-piperidin-1-yl)-4-methyl-quinolin-6-yl]-2-(2,4-dichloro-phenoxy)-acetamide] | 41 | 63 | – | –

SMILES | IC50 (human MCH-1 receptor [1]) [nM] | IC50 (human MCH-1 receptor [2]; [6]) [nM] | Risk Group [3] | also measured
Cc1cc(N(C)CCN(C)C)nc2ccc(NC(=O)c3ccc(-c4ccc(C(F)(F)F)cc4)cc3)cc12 [Example 183, 4′-Trifluoromethyl-biphenyl-4-carboxylic acid {2-[(2-dimethylamino-ethyl)-methyl-amino]-4-methyl-quinolin-6-yl}-amide] | 63 | 474 | – | –
CN(C)CCCN1c2ccccc2Sc2ccc(Cl)cc21 [Chlorpromazine] | – | – | 1 | –
Cc1cc(NCC(C)(C)CN(C)C)nc2ccc(NC(=O)COc3ccc(OC(F)(F)F)cc3)cc12 [Example 45, N-[2-(3-Dimethylamino-2,2-dimethyl-propylamino)-4-methyl-quinolin-6-yl]-2-(4-trifluoromethoxy-phenoxy)-acetamide] | 21 | 190 | – | –
Cc1cc(N(C)CCN(C)C)nc2ccc(NC(=O)CCc3ccc(OC(F)(F)F)cc3)cc12 [Example 98, N-{2-[(2-Dimethylamino-ethyl)-methyl-amino]-4-methyl-quinolin-6-yl}-3-(4-trifluoromethoxy-phenyl)-propionamide] | 37 | 720 | – | –
CNCCCN1c2ccccc2CCc2ccccc21 [Desipramine] | – | – | 4 | –
O=c1[nH]c2ccccc2n1C1CCN(CCCC(c2ccc(F)cc2)c2ccc(F)cc2)CC1 [Pimozide] | – | – | 1 | –
CCCCc1oc2ccccc2c1C(=O)c1cc(I)c(OCCN(CC)CC)c(I)c1 [Amiodarone] | – | – | 1 | –
OCCN1CCN(CCCN2c3ccccc3Sc3ccc(C(F)(F)F)cc32)CC1 [Fluphenazine] | – | – | – | Ki (HERG channels [5]): 2.5 ± 0.57 µM
Cc1nc(N(C)CCCN(C)C)nc2ccc(NC(=O)COc3ccc(Cl)cc3Cl)cc12 [Example 137, 2(2,4-Dichlorophenoxy)N{2[(3-dimethylaminopropyl)methyl-amino]-4-methyl-quinazolin-6-yl}-acetamide] | 10 | 63 | – | –
Cc1cc(N2CCN(CCO)CC2)nc2ccc(NC(=O)COc3ccc(OC(F)(F)F)cc3)cc12 [Example 38, N-{2-[4-(2-Hydroxy-ethyl)-piperazin-1-yl]-4-methyl-quinolin-6-yl}-2-(4-trifluoromethoxy-phenoxy)-acetamide] | 50 | 23 | – | –
CC(CN(C)C)CN1c2ccccc2CCc2ccccc21 (stereo not drawn) [Trimipramine] | – | – | 4 | Ki in μM ± S.D. (#) (HERG channels [4]): No effect at 10
CN1CCN(C(c2ccccc2)c2ccc(Cl)cc2)CC1 (stereo not drawn) [Chlorcyclizine] | – | – | – | Ki (HERG channels [5]): 4 ± 1.4 µM
CN(C)CCC=C1c2ccccc2COc2ccccc21 [Doxepine] | – | – | 4 | –
O=C(CCCN1CCC(O)(c2ccc(Cl)cc2)CC1)c1ccc(F)cc1 [Haloperidole] | – | – | 1 | Ki (HERG channels [4]): 170 nM
Cc1cc(NCCN(C(C)C)C(C)C)nc2ccc(NC(=O)COc3ccc(OC(F)(F)F)cc3)cc12 [Example 40, N-[2-(2-Diisopropylamino-ethylamino)-4-methyl-quinolin-6-yl]-2-(4-trifluoromethoxy-phenoxy)-acetamide] | 22 | – | – | –
